Laboratory results published in patent publication US20260042731A1, “(2,4-DICHLOROPHENOXY)ACETIC ACID ANALOGS” (CORTEVA AGRISCIENCE LLC, priority 2022, published 2026).
Where two headings read alike, the source gives them in different places.

Columns and labels:
[1] = system: Amaranthus rudis (AMATA), tall water hemp; test: Postemergence herbicide evaluation, growth of Amaranthus rudis (AMATA); type: in vivo; settings: Amaranthus tuberculatus, post-emergence, percent reduction in plant size relative to untreated control, read-out: Ave. AMATA; for pest or weed control at 280 g/ha: 280 g ae/ha; for pest or weed control at 560 g/ha: 560 g ae/ha
[2] = system: Ambrosia artemisiifolia (AMBEL), common ragweed; test: Postemergence herbicide evaluation, growth of Ambrosia artemisiifolia (AMBEL); type: in vivo; settings: Ambrosia artemisiifolia, post-emergence, percent reduction in plant size relative to untreated control, read-out: AVE. AMBEL; for pest or weed control at 280 g/ha: 280 g ae/ha; for pest or weed control at 560 g/ha: 560 g ae/ha
[3] = system: Abutilon theophrasti (ABUTH), velvetleaf; test: Postemergence herbicide evaluation, growth of Abutilon theophrasti (ABUTH); type: in vivo; settings: Abutilon theophrasti, post-emergence, percent reduction in plant size relative to untreated control, read-out: AVE. ABUTH; for pest or weed control at 280 g/ha: 280 g ae/ha; for pest or weed control at 560 g/ha: 560 g ae/ha
[4] = system: Chenopodium album (CHEAL), common lambsquarters; test: Postemergence herbicide evaluation, growth of Chenopodium album (CHEAL); type: in vivo; settings: Chenopodium album, post-emergence, percent reduction in plant size relative to untreated control, read-out: Ave. CHEAL; for pest or weed control at 280 g/ha: 280 g ae/ha; for pest or weed control at 560 g/ha: 560 g ae/ha
[5] = system: glyphosate resistant Conyza canadensis (L.) (ERICA), horseweed; test: Postemergence herbicide evaluation, growth of Conyza canadensis (ERICA); type: in vivo; settings: Erigeron canadensis, post-emergence, percent reduction in plant size relative to untreated control, read-out: Ave. ERICA; for pest or weed control at 280 g/ha: 280 g ae/ha; for pest or weed control at 560 g/ha: 560 g ae/ha
[6] = Volatility of compounds measured by thermogravimetric analysis (TGA); type: physicochemical
[7] = system: weeds (ABUTH, AMATA, AMBEL, CHEAL, ERICA); test: Postemergence herbicide evaluation, overall average % weed control across ABUTH, AMATA, AMBEL, CHEAL, ERICA; type: in vivo; settings: post-emergence, average over the five weeds, read-out: Overall Ave % Weed Control; for pest or weed control at 280 g/ha: 280 g ae/ha; for pest or weed control at 560 g/ha: 560 g ae/ha
[8] = system: Glycine max (Enlist E3 traited soybeans, GLXMA); settings: Enlist E3 soybeans, percent reduction in plant size relative to untreated control

Cc1ccc(S(=O)(=O)NC(=O)COc2ccc(Cl)cc2Cl)cc1 [Compound D5]
pest or weed control at 280 g/ha ([1]; 168 h, 7 DAA): 73% | pest or weed control at 560 g/ha ([1]; 168 h, 7 DAA): 73% | pest or weed control at 280 g/ha ([1]; 336 h, 14 DAA): 78% | pest or weed control at 560 g/ha ([1]; 336 h, 14 DAA): 75% | pest or weed control at 280 g/ha ([1]; 504 h, 21 DAA): 75% | pest or weed control at 560 g/ha ([1]; 504 h, 21 DAA): 73% | pest or weed control at 280 g/ha ([2]; 168 h, 7 DAA): 48% | pest or weed control at 560 g/ha ([2]; 168 h, 7 DAA): 65% | pest or weed control at 280 g/ha ([2]; 336 h, 14 DAA): 68% | pest or weed control at 560 g/ha ([2]; 336 h, 14 DAA): 90% | pest or weed control at 280 g/ha ([2]; 504 h, 21 DAA): 58% | pest or weed control at 560 g/ha ([2]; 504 h, 21 DAA): 85% | pest or weed control at 280 g/ha ([3]; 168 h, 7 DAA): 30% | pest or weed control at 560 g/ha ([3]; 168 h, 7 DAA): 40% | pest or weed control at 280 g/ha ([3]; 336 h, 14 DAA): 23% | pest or weed control at 560 g/ha ([3]; 336 h, 14 DAA): 35% | pest or weed control at 280 g/ha ([3]; 504 h, 21 DAA): 25% | pest or weed control at 560 g/ha ([3]; 504 h, 21 DAA): 25% | pest or weed control at 280 g/ha ([4]; 168 h, 7 DAA): 65% | pest or weed control at 560 g/ha ([4]; 168 h, 7 DAA): 73% | pest or weed control at 280 g/ha ([4]; 336 h, 14 DAA): 70% | pest or weed control at 560 g/ha ([4]; 336 h, 14 DAA): 73% | pest or weed control at 280 g/ha ([4]; 504 h, 21 DAA): 65% | pest or weed control at 560 g/ha ([4]; 504 h, 21 DAA): 68% | pest or weed control at 280 g/ha ([5]; 168 h, 7 DAA): 63% | pest or weed control at 560 g/ha ([5]; 168 h, 7 DAA): 53% | pest or weed control at 280 g/ha ([5]; 336 h, 14 DAA): 78% | pest or weed control at 560 g/ha ([5]; 336 h, 14 DAA): 75% | pest or weed control at 280 g/ha ([5]; 504 h, 21 DAA): 73% | pest or weed control at 560 g/ha ([5]; 504 h, 21 DAA): 68% | TGA Data (rate of weight loss, volatility) [6]: 0.02 µg/min | pest or weed control at 280 g/ha ([7]; 168 h, 7 DAA): 56% | pest or weed control at 560 g/ha ([7]; 168 h, 7 DAA): 61% | pest or weed control at 280 g/ha ([7]; 336 h, 14 DAA): 63% | pest or weed control at 560 g/ha ([7]; 336 h, 14 DAA): 70% | pest or weed control at 280 g/ha ([7]; 504 h, 21 DAA): 59% | pest or weed control at 560 g/ha ([7]; 504 h, 21 DAA): 63% | AVE. GLXMA ([8]; 280 g ae/ha, 7 DAA): 4% | AVE. GLXMA ([8]; 280 g ae/ha, 14 DAA): 2% | AVE. GLXMA ([8]; 280 g ae/ha, 21 DAA): 3% | AVE. GLXMA ([8]; 560 g ae/ha, 7 DAA): 9% | AVE. GLXMA ([8]; 560 g ae/ha, 14 DAA): 5% | AVE. GLXMA ([8]; 560 g ae/ha, 21 DAA): 5%
